Melting point and IC50 data for 17 molecules are collected here from patent US8318949B2, “Organic compounds” (Novartis AG, priority 2008, dated 2012).

Structures are written as SMILES.

System in the first data set: not given
Assay: not given
Conditions: not given
`Cc1nc(N2C[C@@H](C)N(Cc3ccc(F)cc3)C2=O)sc1C(=O)NCc1cccnc1` [Example 2.7, (R)-2-(3-(4-Fluorobenzyl)-4-methyl-2-oxoimidazolidin-1-yl)-4-methyl-N-(pyridin-3-ylmethyl)thiazole-5-carboxamide] came in with a melting point of 135 to 136 °C.
Consider `Cc1nc(N2CCN(Cc3cccc(C(F)(F)F)c3)C2=O)sc1-c1cc[nH]n1` [Example 17.2, 1-(4-methyl-5-(1H-pyrazol-3-yl)thiazol-2-yl)-3-(3-(trifluoromethyl)benzyl)imidazolidin-2-one], for which the melting point was in the range of 209 to 214 °C.

A further data set has as its target T1, stearoyl-CoA desaturase (SCD1) (Mus musculus, UniProt P13516).
T1 construct: Male ICR outbread mice, on a high-carbohydrate, low fat diet; from tissue; host or cells: liver microsomes of male ICR mice on a high-carbohydrate, low fat diet
T1 sequence (P13516 1-355): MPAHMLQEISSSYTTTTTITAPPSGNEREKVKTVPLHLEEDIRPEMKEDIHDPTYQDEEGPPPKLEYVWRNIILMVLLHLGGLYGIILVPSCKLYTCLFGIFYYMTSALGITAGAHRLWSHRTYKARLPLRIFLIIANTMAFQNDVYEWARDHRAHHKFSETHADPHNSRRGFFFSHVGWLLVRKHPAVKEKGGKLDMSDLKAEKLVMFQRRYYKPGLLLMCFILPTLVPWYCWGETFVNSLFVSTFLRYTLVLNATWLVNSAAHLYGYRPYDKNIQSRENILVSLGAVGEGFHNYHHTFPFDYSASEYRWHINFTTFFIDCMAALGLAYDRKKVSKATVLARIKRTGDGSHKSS
In words: Stearoyl-CoA desaturase inhibition, mouse liver microsomes (release of 3H2O from [9,10-3H]stearoyl-CoA). It counts as biochemical. The settings on record: 15 min incubation, 25° C., read-out: Microsomal IC50. From the text: The identification of compounds of the invention as SCD inhibitors was readily accomplished using the SCD enzyme and microsomal assay procedure described in Shanklin J. and Summerville C., Proc. Natl. Acad. Sci. USA (1991), Vol. 88, pp. 2510-2514.
Measuring Stearoyl-CoA Desaturase Inhibition Activity of a Test Compound Using Mouse Liver Microsomes
The identification of compounds of the invention as SCD inhibitors was readily accomplished using the SCD microsomal assay procedure described in Shanklin J. and Summerville C., Proc. Natl. Acad. Sci. USA (1991), Vol. 88, pp. 2510-2514.
Male ICR outbread mice, on a high-carbohydrate, low fat diet, under light halothane (15% in mineral oil) anesthesia are sacrificed by exsanguination during periods of high enzyme activity. Livers are immediately rinsed with cold 0.9% NaCl solution, weighed and minced with scissors. All procedures are performed at 4° C. unless specified otherwise. Livers are homogenized in a solution (1/3 w/v) containing 0.25 M sucrose, 62 mM potassium phosphate buffer (pH 7.0), 0.15 M KCl, 15 mM N-acetyleysteine, 5 mM MgCl2, and 0.1 mM EDTA using 4 strokes of a Potter-Elvehjem tissue homogenizer. The homogenate is centrifuged at 10,400×g for 20 min to eliminate mitochondria and cellular debris. The supernatant is filtered through a 3-layer cheesecloth and centrifuged at 105,000×g for 60 min. The microsomal pellet is gently resuspended in the same homogenization solution with a small glass/teflon homogenizer and stored at −70° C. The absence of mitochondrial contamination is enzymatically assessed. The protein concentration is measured using bovine serum albumin as the standard.
Desaturase activity is measured as the release of ^3H2O from [9,10-^3H]stearoyl-CoA. Reactions per assay point conditions are as follows: 2 μL 1.5 mM stearoyl-CoA, 0.25 μL 1 mCi/mL ^3H stearoyl CoA, 10 μL 20 mM NADH, 36.75 μL 0.1 M PK buffer (K2HPO4/NaH2PO4, pH 7.2). The test compound or control solution is added in a 1 μL volume. Reactions are started by adding 50 μL of microsomes (1.25 mg/mL). The plates are mixed and after 15 min incubation on a heating block (25° C.), the reactions are stopped by the addition of 10 μL 60% PCA. An aliquot of 100 μL is then transferred to a filter plate pretreated with charcoal and the plate centrifuged at 4000 rpm for 1 minute. The flow through containing the ^3H2O released by the SCD1 desaturation reaction is added to scintillation fluid and the radioactivity measured in a Packard TopCount. The data is analysed to identify the IC50 for test compounds and reference compounds.
The activity was defined in terms of % SCD enzyme activity remaining at the desired concentration of the test compound or as the IC50 concentration. The IC50 (affinity) of the example compounds toward the stearoyl-CoA desaturase is comprised between around […] and 0.0001 μM or between around 5 μM and 0.0001 μM or between around 1 μM and 0.0001 μM.
On to `Cc1nc(N2C(=O)N(Cc3ccc(F)cc3)C3CC32)sc1C(=O)NCc1cccnc1` (stereo not shown) [Example 19, 2-(4-(4-fluorobenzyl)-3-oxo-2,4-diazabicyclo[3.1.0]hexan-2-yl)-4-methyl-N-(pyridin-3-ylmethyl)thiazole-5-carboxamide], for which the IC50 came out at 1210 nM.
The same measure, in the same setting: in the case of `Cc1nc(N2CCN(Cc3ccc(S(C)(=O)=O)cc3)C2=O)sc1C(N)=O` [Example 20-133, 4-methyl-2-(3-(4-(methylsulfonyl)benzyl)-2-oxoimidazolidin-1-yl)thiazole-5-carboxamide] it was 527 nM; in that of `Cc1nc(-n2cnn(C(C)c3ccccc3)c2=O)sc1C(=O)NCc1csc(C(F)(F)F)n1` (stereo not shown) [Example 20-17, 4-methyl-2-(5-oxo-1-(1-phenylethyl)-1H-1,2,4-triazol-4(5H)-yl)-N-((2-(trifluoromethyl)-thiazol-4-yl)-methyl)thiazole-5-carboxamide], 208 nM.
Turning to `Cc1cc(CNC(=O)c2sc(N3CCN(CC4CC4)C3=O)nc2C)no1` [Example 20-83, 2-(3-(cyclopropylmethyl)-2-oxoimidazolidin-1-yl)-4-methyl-N-((5-methylisoxazol-3-yl)methyl)thiazole-5-carboxamide], the IC50 turned out to be 11 nM.
Regarding `Cc1nc(-n2cnn(Cc3cc(F)cc(F)c3)c2=O)sc1C(=O)NCc1ccccn1` [Example 20-52, 2-(1-(3,5-difluorobenzyl)-5-oxo-1H-1,2,4-triazol-4(5H)-yl)-4-methyl-N-(pyridin-2-ylmethyl)-thiazole-5-carboxamide], the half-inhibitory concentration (IC50) stood at 13 nM.
On to `Cc1nc(-n2cnn(CC3CC3(F)F)c2=O)sc1C(=O)NCc1cnn(C)c1` (stereo not shown) [Example 20-76, 2-(1-((2,2-difluorocyclopropyl)methyl)-5-oxo-1H-1,2,4-triazol-4(5H)-yl)-4-methyl-N-((1-methyl-1H-pyrazol-4-yl)methyl)thiazole-5-carboxamide], for which the IC50 is 551 nM.
Regarding `Cc1nc(-n2cnn(Cc3ccc(OC(F)(F)F)cc3)c2=O)sc1C(=O)NCc1ccccn1` [Example 20-54, 4-methyl-2-(5-oxo-1-(4-(trifluoromethoxy)-benzyl)-1H-1,2,4-triazol-4(5H)-yl)-N-(pyridin-2-ylmethyl)-thiazole-5-carboxamide], the half-maximal inhibitory concentration (IC50) came to 20 nM.
Regarding `Cc1nc(N2CCN(Cc3ccc(C(F)(F)F)cc3)C2=O)sc1C(=O)NCc1ccc2nccn2c1` [Example 20-22, N-(imidazo[1,2-a]pyridin-6-ylmethyl)-4-methyl-2-(2-oxo-3-(4-(trifluoromethyl)-benzyl)imidazolidin-1-yl)-thiazole-5-carboxamide], the IC50 was determined as 709 nM.
Consider `Cc1nc(-n2cnn(C(C)c3ccccc3)c2=O)sc1C(=O)NCc1cccnc1` (stereo not shown) [Example 20-5, 4-methyl-2-(5-oxo-1-(1-phenylethyl)-1H-1,2,4-triazol-4(5H)-yl)-N-(pyridin-3-ylmethyl)thiazole-5-carboxamide], for which the 50% inhibitory concentration (IC50) was found to be 98 nM.
As to `Cc1nc(N2CCN(CC(C)C)C2=O)sc1C(=O)NCc1cccnc1` [Example 12.18, 2-(3-isobutyl-2-oxoimidazolidin-1-yl)-4-methyl-N-(pyridin-3-ylmethyl)thiazole-5-carboxamide], the IC50 was determined as 156 nM.
With `Cc1nc(N2CCN(Cc3cccc(F)c3)C2=O)sc1C(N)=O` [Example 20-24, 2-(3-(3-fluorobenzyl)-2-oxoimidazolidin-1-yl)-4-methylthiazole-5-carboxamide], the half-inhibitory concentration (IC50) was found to be 40 nM.
The same measure, in the same setting: with `Cc1nc(-c2sc(N3CCN(Cc4ccc(OC(F)(F)F)cc4)C3=O)nc2C)n[nH]1` [Example 20-57, 1-(4-methyl-5-(5-methyl-1H-1,2,4-triazol-3-yl)thiazol-2-yl)-3-(4-(trifluoromethoxy)-benzyl)imidazolidin-2-one] the figure was 119 nM.
The same measure, in the same setting: in the case of `Cc1nc(N2C[C@@H](C)N(Cc3ccc(F)cc3)C2=O)sc1C(=O)NCc1cccnc1` [Example 2.7, (R)-2-(3-(4-Fluorobenzyl)-4-methyl-2-oxoimidazolidin-1-yl)-4-methyl-N-(pyridin-3-ylmethyl)thiazole-5-carboxamide] it was 36 nM.
In the case of `Cc1nc(N2CCN(Cc3cc(Cl)cc(Cl)c3)C2=O)sc1C(=O)NCc1ccccn1` [Example 20-90, 2-(3-(3,5-dichlorobenzyl)-2-oxoimidazolidin-1-yl)-4-methyl-N-(pyridin-2-ylmethyl)thiazole-5-carboxamide], the half-inhibitory concentration (IC50) is 8 nM.
On the same count and under the same terms, in the case of `Cc1nc(-n2cnn(C(C)c3ccccc3)c2=O)sc1C(=O)NCc1cncs1` (stereo not shown) [Example 20-10, 4-methyl-2-(5-oxo-1-(1-phenylethyl)-1H-1,2,4-triazol-4(5H)-yl)-N-(thiazol-5-ylmethyl)thiazole-5-carboxamide] it was 8 nM.
On to `Cc1nc(N2CCN(Cc3cccc(C(F)(F)F)c3)C2=O)sc1-c1cc[nH]n1` [Example 17.2, 1-(4-methyl-5-(1H-pyrazol-3-yl)thiazol-2-yl)-3-(3-(trifluoromethyl)benzyl)imidazolidin-2-one], for which the half-maximal inhibitory concentration (IC50) was 186 nM.
Turning to `Cc1nc(N2CCN(CCC3CC3)C2=O)sc1C(=O)NCc1ccccn1` [Example 20-103, 2-(3-(2-cyclopropylethyl)-2-oxoimidazolidin-1-yl)-4-methyl-N-(pyridin-2-ylmethyl)thiazole-5-carboxamide], the concentration for half-maximal inhibition (IC50) worked out at 38 nM.
